Among the test systems are Hs-578T; HCC 2998; SK-OV-3; RXF 393; UACC-257; T47D; NCI-H226; DU-145; SNB-19; SK-MEL-5; SW-620; NCI-H23; SF-295; IGROV-1; K562; MCF7; SR; NCI-H522; HCT-15; OVCAR-3.
Assay in all cases: growth of human tumour cells (NCI), 48 h

Counter-ions that a name gives are not always drawn.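 Protocol summary: plate cells (96-well), add compound at 5 concentrations, incubate 48 h, interpolate endpoints linearly. GI50: concentration for 50% inhibition of growth.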 Calls of active or inactive are those of the source. Cut-off read from the data, not from the text of the source: active = GI50 up to about 1.1 µM and inactive = higher.

Consider `O=C(NC(Nc1ccc(F)c(Cl)c1)(C(F)(F)F)C(F)(F)F)C(C(F)(F)F)C(F)(F)F`, for which the GI50 with Hs-578T was 17.6 µM (inactive); in the assay with HCC 2998, > 100 µM (inactive); with SK-OV-3, 52.7 µM (inactive); with RXF 393, 23.2 µM (inactive); in the assay with UACC-257, 32.7 µM (inactive); in the assay with T47D, 44.3 µM (inactive). For the same compound, the GI50 in the assay with NCI-H226 is 24.1 µM (inactive); with DU-145, 27.5 µM (inactive); in the assay on SNB-19 it was 30.9 µM (inactive); in the assay with SK-MEL-5 it was 21.4 µM (inactive); in the assay with SW-620, 22.1 µM (inactive); in the assay with NCI-H23, 23.3 µM (inactive). In addition, the GI50 is 36.5 µM (inactive) with SF-295; 13.4 µM (inactive) in the assay with IGROV-1; 14.5 µM (inactive) in the assay on K562; 33 µM (inactive) in the assay with MCF7; 28.2 µM (inactive) with SR; 16.8 µM (inactive) in the assay on NCI-H522. Further, the GI50 in the assay with HCT-15 is 18.1 µM; in the assay on OVCAR-3, 26.9 µM (inactive).

As to `c1ccc(CN2CCc3[nH]c4ccccc4c3C2)cc1`, the GI50 in the assay with Hs-578T is 32.5 µM (inactive); in the assay with HCC 2998, 15.4 µM (inactive); in the assay on SK-OV-3, 58.3 µM (inactive); in the assay on RXF 393 it was 34.7 µM (inactive); with UACC-257, 16 µM (inactive); in the assay with T47D it was 14.9 µM (inactive). Further, the GI50 was 33.4 µM (inactive) with NCI-H226; 31 µM (inactive) with DU-145; 69.8 µM (inactive) with SNB-19; 16.9 µM (inactive) with SK-MEL-5; 24.8 µM (inactive) in the assay with SW-620; 59.2 µM (inactive) with NCI-H23. The GI50 is 29.9 µM (inactive) in the assay with SF-295; 38.7 µM (inactive) in the assay with IGROV-1; 19.1 µM (inactive) in the assay on K562; 17.1 µM (inactive) in the assay with MCF7; 21.9 µM (inactive) in the assay on SR; 18.1 µM (inactive) in the assay with NCI-H522. Further, the GI50 in the assay with HCT-15 is 25.9 µM; in the assay on OVCAR-3 it was 33 µM (inactive).

Consider `C[C@]12CC[C@H]3[C@@H](CC=C4C[C@@H](O)CC[C@@]43C)[C@@H]1C/C(=C/c1ccccc1)[C@@H]2O`, for which the GI50 in the assay on Hs-578T is 43 µM (inactive); with HCC 2998, 17.9 µM (inactive); in the assay on SK-OV-3, 37.6 µM (inactive); with RXF 393, > 25.1 µM (inactive); in the assay with UACC-257, 15.6 µM (inactive); in the assay on T47D it was > 22 µM (inactive). Also, the GI50 in the assay with NCI-H226 was 18.5 µM (inactive); with DU-145, > 42.2 µM (inactive); in the assay on SNB-19, 22.4 µM (inactive); in the assay with SK-MEL-5 it was 12.1 µM (inactive); with SW-620, > 51.8 µM (inactive); in the assay with NCI-H23, 15.9 µM (inactive). In addition, the GI50 with SF-295 is > 36.7 µM (inactive); with IGROV-1, 11.8 µM (inactive); in the assay with K562, > 23.6 µM (inactive); with MCF7, > 33 µM (inactive); in the assay on SR it was 3.85 µM (inactive); in the assay with NCI-H522, 14.7 µM (inactive). The values for the GI50 in the assay with HCT-15 and in the assay on OVCAR-3 were 19.7 µM and 16 µM (inactive), respectively.

`COc1ccc(/C=C\c2cc(OC)c(OC)c(OC)c2)cc1OC`: the GI50 with Hs-578T was 0.0604 µM (active); in the assay on HCC 2998, 0.134 µM (active); with SK-OV-3, 0.114 µM (active); in the assay with RXF 393, 0.121 µM (active); in the assay on UACC-257, 0.136 µM (active); in the assay on T47D it was 22.2 µM (inactive). Further, the GI50 was 0.056 µM (active) with NCI-H226; 0.286 µM (active) in the assay on DU-145; 0.153 µM (active) in the assay on SNB-19; 0.207 µM (active) with SK-MEL-5; 0.149 µM (active) in the assay with SW-620; 0.216 µM (active) in the assay on NCI-H23. The GI50 with SF-295 is 0.108 µM (active); in the assay on IGROV-1 it was 0.278 µM (active); with K562, 0.12 µM (active); in the assay with MCF7 it was 0.0968 µM (active); in the assay on SR, 0.0649 µM (active); in the assay on NCI-H522, 0.0349 µM (active). For the same compound, the GI50 in the assay with HCT-15 is 0.113 µM; with OVCAR-3, 0.0916 µM (active).

In the case of `COc1cc2cc[n+](C)c(Cc3ccc(Oc4cc(Cc5c6cc(OC)c(OC)cc6cc[n+]5C)ccc4OC)cc3)c2cc1OC`, the GI50 in the assay with Hs-578T, in the assay with HCC 2998, with SK-OV-3, in the assay with RXF 393, in the assay with UACC-257 and with T47D was > 100 µM (inactive) throughout. In addition, the GI50 with NCI-H226, in the assay with DU-145, in the assay with SNB-19, with SK-MEL-5, with SW-620 and with NCI-H23 was > 100 µM (inactive) in each case. Further, the GI50 with SF-295 is 59.2 µM (inactive); with IGROV-1 it was > 100 µM (inactive); with K562 it was > 100 µM (inactive); in the assay on MCF7, > 100 µM (inactive); in the assay on SR, > 100 µM (inactive); in the assay with NCI-H522 it was > 100 µM (inactive). The values for the GI50 in the assay on HCT-15 and in the assay with OVCAR-3 were over 100 µM and > 100 µM (inactive), respectively.

Consider `CN[C@@H]1[C@H](O)[C@H](NC)[C@H]2O[C@@]3(O)C(=O)C[C@@H](C)O[C@H]3O[C@@H]2[C@H]1O` [SPECTINOMYCIN SULFATE], for which the GI50 in the assay with Hs-578T, with HCC 2998, in the assay on SK-OV-3, in the assay with RXF 393, in the assay on UACC-257 and in the assay on T47D was > 100 µM (inactive) throughout. In addition, the GI50 in the assay on NCI-H226, in the assay with DU-145, in the assay with SNB-19, in the assay with SK-MEL-5, with SW-620 and with NCI-H23 was > 100 µM (inactive) each time. The GI50 in the assay on SF-295, in the assay with IGROV-1, in the assay on K562, in the assay on MCF7, with SR and in the assay with NCI-H522 was > 100 µM (inactive) each time. For the same compound, the GI50 was over 100 µM in the assay on HCT-15 and > 100 µM (inactive) in the assay with OVCAR-3.

For the compound `CC(O)c1cc2c(s1)C(=O)c1scc(C(C)O)c1C2=O` (stereo not given), the GI50 in the assay with Hs-578T was 0.394 µM (active); with HCC 2998, 1.66 µM (inactive); in the assay with SK-OV-3, 2.64 µM (inactive); in the assay on RXF 393, 0.881 µM (active); in the assay on UACC-257, 0.176 µM (active); with T47D it was 1.95 µM (inactive). Besides, the GI50 is 2 µM (inactive) in the assay with NCI-H226; 0.614 µM (active) with DU-145; 0.667 µM (active) in the assay on SNB-19; 0.156 µM (active) with SK-MEL-5; 0.321 µM (active) in the assay with SW-620; 0.191 µM (active) with NCI-H23. The GI50 in the assay on SF-295 was 0.168 µM (active); in the assay on IGROV-1 it was 1.68 µM (inactive); in the assay with K562 it was 0.597 µM (active); in the assay on MCF7, 0.413 µM (active); in the assay with SR it was 0.271 µM (active); in the assay on NCI-H522 it was 0.628 µM (active). Moreover, the GI50 was 0.352 µM in the assay with HCT-15 and 0.393 µM (active) in the assay on OVCAR-3.

For the compound `CN1CCC(O)(OC(=O)C(c2ccccc2)C2(O)CCCC2)CC1` (stereo not given), the GI50 in the assay with Hs-578T, with HCC 2998, in the assay with SK-OV-3, with RXF 393, in the assay with UACC-257 and in the assay with T47D was > 100 µM (inactive) each time. Further, the GI50 in the assay with NCI-H226, in the assay with DU-145, in the assay with SNB-19, in the assay on SK-MEL-5, with SW-620 and in the assay with NCI-H23 was > 100 µM (inactive) each time. Besides, the GI50 with SF-295, with IGROV-1, in the assay on K562, in the assay on MCF7, in the assay with SR and in the assay with NCI-H522 was > 100 µM (inactive) throughout. Also, the GI50 with HCT-15 was over 100 µM; with OVCAR-3 it was > 100 µM (inactive).
